37 molecules from article PMC12663132, “Assessment of cytotoxicity of some synthetic compounds against breast carcinoma spheroids with subsequent analysis of pro-apoptotic and gene expression” (Scientific Reports, 2025) can be followed below.

One may read the inhibition as the relative decrease from the control value, in per cent.

Counter-ions that a name gives are not always drawn.

The subject of one data set is MCF7 3D spheroids. The data set can be described thus: Cytotoxicity on MCF7 3D multicellular spheroids (acid phosphatase method). The settings on record: for cytotoxicity at 50 µM: MCF7, 120 h, read-out: Mean of % cytotoxicity ± S.D; for % inhibition 3D / Mean of % cytotoxicity ± S.D: MCF7 3D spheroids; for % inhibition 3D: 50 µM; for Mean of % cytotoxicity ± S.D: 50µM, 120 h.

A further data set has as its system MCF7. The data set can be described thus: Cytotoxicity on MCF7 monolayers (MTT assay). The settings on record: for cytotoxicity at 50 µM: Homo sapiens, MCF7, 72 h, read-out: Mean of % cytotoxicity ± SD; for % inhibition 2D / Mean of % cytotoxicity ± SD: MCF7 monolayer; for % inhibition 2D: 50 µM; for Mean of % cytotoxicity ± SD: 50µM, 72 h, MTT.

Protocol for MCF7 3D spheroids: Eighty pre-plated synthetic chemical compounds were screened on two human cell lines: MCF7 (ATCC® HTB-22™), a Caucasian breast adenocarcinoma model, and hTERT-RPE-1 (ATCC® CRL-4000™), a normal retinal epithelial cell line immortalized by hTERT telomerase. […] The cells were cultured in DMEM-F12 medium supplemented with L-glutamine and 10% fetal bovine serum, all were purchase from Biowest (Biotechnology company in Nuaillé, France), and maintained in a controlled incubator environment set at 37 °C with 5% CO2 and 95% humidity.
3-D spheroid models were generated from MCF7 cancer and hTERT-RPE1 normal cells were seeded at 10,000 and 50,000 cells/well, respectively, in poly-HEMA coated round bottom plates according to the protocol previously mentioned[44]. The cells were incubated for 5 days to generate the spheroids with diameter of 500 ± 20 µm. The spheroids were imaged using Olympus S100, U-CMAD3 camera connected to Olympus inverted microscope and the diameter of the spheroids was measured using Cellscen-Entry software. Test compounds were added in triplicate to a final concentration of 50 µM and were incubated for 120 h. […] At the end of incubation, cytotoxicity was determined using the acid phosphatase method[45]. After washing twice with 250 μL PBS buffer, 100 μL of 0.1 M sodium citrate, 0.1% Triton X-100, p-nitrophenylphosphate (2 mg/ml) (Pierce Biotechnology Inc., Rockford, IL) was added to each well and incubated for 1.5 h at 37 °C. After incubation, 10 μL of 1N NaOH stop solution was added to each well, and absorbance was read at 405 nm. Cytotoxicity was calculated according to the following equation:

For `Cc1c(C)c(C)c2[nH]c(-c3ccc4c(c3)OCO4)nc2c1C` [D04, 2-(1,3-benzodioxol-5-yl)-4,5,6,7-tetramethyl-1H-benzimidazole], the cytotoxicity at 50 µM in the data set on MCF7 3D spheroids (Homo sapiens) was found to be 67.9 ± 0.5%; in the data set with MCF7, 100 ± 0.003%.
In the same order, the values of `N#CCc1ccc(NC(=O)Nc2ccc(OC(F)(F)F)cc2)cc1` [G08, N-[4-(cyanomethyl)phenyl]-N'-[4-(trifluoromethoxy)phenyl]urea] are 56.2 ± 3% and 82.8 ± 0.76%.
In the same order, the values of `O=C(NCCc1ccncc1)C(F)(F)F` [B03, N1-[2-(4-pyridyl)ethyl]-2,2,2-trifluoroacetamide] are 25.5 ± 0.11% and 0%.
`Cc1cc(C)n(-c2ccc(S(N)(=O)=O)cc2)n1` [C07, 4-(3,5-dimethyl-1H-pyrazol-1-yl)benzene-1-sulfonamide]: the cytotoxicity at 50 µM in the data set with MCF7 3D spheroids (Homo sapiens) is 55.4 ± 2.3%; in the data set with MCF7 it was 0%.
The matching figures for `O=C(Nc1ccc2c(c1)COCO2)c1cc2ccccc2oc1=O` [H04, N3-(4H-1,3-benzodioxin-6-yl)-2-oxo-2H-chromene-3-carboxamide]: 28 ± 0.6% and 46 ± 0.8%.
With `O=C(Nc1cc(-c2ccccc2)n[nH]1)C1COc2ccccc2O1` (stereo not shown) [A09, N2-(3-phenyl-1H-pyrazol-5-yl)-2,3-dihydro-1,4-benzodioxine-2-carboxamide], the cytotoxicity at 50 µM in the data set with MCF7 3D spheroids (Homo sapiens) was found to be 52.2 ± 1.9%; in the data set on MCF7 it was 100 ± 0.003%.
In the same order, the values of `CS(=O)(=O)CC(N)=S` [H05, 2-(methylsulfonyl)ethanethioamide] are 19.3 ± 0.5% and 24.1 ± 1.17%.
Turning to `CCOc1nc2ccccc2nc1OCC` [E04, 2,3-diethoxyquinoxaline], the figures for the cytotoxicity at 50 µM in the data set with MCF7 3D spheroids (Homo sapiens) and with MCF7 were 42 ± 1.1% and 62.6 ± 3.1%, respectively.
In the same order, the values of `Cc1nn(-c2ccccc2)nc1C(=O)Nc1cc(Cl)cc(Cl)c1` [A03, N4-(3,5-dichlorophenyl)-5-methyl-2-phenyl-2H-1,2,3-triazole-4-carboxamide] are 39.1 ± 0.24% and 94.2 ± 0.65%.
As to `O=C(NNC(=O)c1ccc(OC(F)(F)F)cc1)c1ccc(Cl)cc1` [C11, N'1-(4-chlorobenzoyl)-4-(trifluoromethoxy)benzene-1-carbohydrazide], the cytotoxicity at 50 µM is 66.5 ± 0.24% in the data set on MCF7 3D spheroids (Homo sapiens) and 83.1 ± 1.17% with MCF7.
On to `COC(=O)c1sccc1S(=O)(=O)Nc1ccc(-c2cn3c(n2)SCC3)cc1` [G05], for which, in the data set with MCF7 3D spheroids, the “% inhibition 3D” value stood at 35.1% and the “Mean of % cytotoxicity ± S.D” value turned out to be 35.1 ± 0.6%. Moreover, in the data set with MCF7, the “% inhibition 2D” value is listed as 65.7% and the “Mean of % cytotoxicity ± SD” value is listed as 65.7 ± 1.0%.
As for `O=C1C(=C2NC(c3ccccn3)C3C(=O)N(c4ccc(OC(F)(F)F)cc4)C(=O)C23)C(=O)c2ccccc21` (stereo not shown) [F10, 4-(1,3-dioxo-2,3-dihydro-1H-inden-2-yliden)-6-(2-pyridyl)-2-[4-(trifluoromethoxy)phenyl]perhydropyrrolo [3,4-c]pyrrole-1,3-dione], the cytotoxicity at 50 µM is 60.3 ± 1.1% with MCF7 3D spheroids (Homo sapiens) and 100 ± 0.003% in the data set with MCF7.
In the same order, the values of `COc1ccc(C(=O)NCc2ccco2)cc1OC` [C06, N-(2-furylmethyl)-3,4-dimethoxybenzamide] are 35.8 ± 0.23% and 0%.
The matching figures for `Cc1nnsc1-c1nnc(-c2ccccc2C(F)(F)F)o1` [F09, 2-(4-methyl-1,2,3-thiadiazol-5-yl)-5-[2-(trifluoromethyl)phenyl]-1,3,4-oxadiazole]: 14.2 ± 0.5% and 9.9 ± 3.8%.
In the same order, the values of `Cc1ccc(OCC(O)CN2CCC(C(N)=O)CC2)c([N+](=O)[O-])c1` (stereo not shown) [D09, 1-[2-hydroxy-3-(4-methyl-2-nitrophenoxy)propyl]piperidine-4-carboxamide] are 50 ± 0.35% and 7.6 ± 0.2%.
In the case of `N#CC1(c2ccccc2)N=C2C=CC=CN2N=C1c1ccccc1` (stereo not shown) [E06, 2,3-diphenyl-2H-pyrido[1,2-b][1,2,4]triazine-2-carbonitrile], the cytotoxicity at 50 µM with MCF7 3D spheroids (Homo sapiens) is 55 ± 1.6%; in the data set on MCF7, 26.7 ± 1.18%.
As for `C(=Cc1ccco1)C1=NN(Cc2ccccc2)CC1` [C05, 1-benzyl-3-[2-(2-furyl)vinyl]-4,5-dihydro-1H-pyrazole hydrochloride], the cytotoxicity at 50 µM in the data set with MCF7 3D spheroids (Homo sapiens) turned out to be 48.6 ± 2%; with MCF7, 62.9 ± 3.8%.
In the same order, the values of `O=C(O)c1ccc(-c2ccsc2)cc1` [H06, 4-(3-thienyl)benzoic acid] are 26.1 ± 0.4% and 7.8 ± 0.23%.
The matching figures for `NS(=O)(=O)c1ccc(NNC(=O)c2cccs2)cc1` [E07, 4-[2-(2-thienylcarbonyl)hydrazino]benzenesulfonamide]: 36.2 ± 0.35% and 0%.
In the same order, the values of `CCCS(=O)(=O)c1cscc1NC(=O)c1c(-c2c(F)cccc2Cl)noc1C` [A10, N4-[4-(propylsulfonyl)-3-thienyl]-3-(2-chloro-6-fluorophenyl)-5-methylisoxazole-4-carboxamide] are 68.6 ± 1.1% and 53.8 ± 4.9%.
On to `NC(=NOC(=O)Nc1ccc(OC(F)(F)F)cc1)c1cnccn1` [E08, N'-({[4-(trifluoromethoxy)anilino]carbonyl}oxy) pyrazine-2-carboximidamide], for which, in the data set with MCF7 3D spheroids, the “% inhibition 3D” value came out at 40.2% and the “Mean of % cytotoxicity ± S.D” value was 40.2 ± 3.8%. Further, in the data set with MCF7, the “% inhibition 2D” value is 84.1% and the “Mean of % cytotoxicity ± SD” value is listed as 84.1 ± 1.6%.
Turning to `COc1ccc(Cl)cc1NC(=O)Nc1ccc(N2CCCCC2)cc1` [E09, N-(5-chloro-2-methoxyphenyl)-N'-(4-piperidinophenyl) urea], the cytotoxicity at 50 µM in the data set with MCF7 3D spheroids (Homo sapiens) came to 50.7 ± 0.52%; in the data set with MCF7, 28.3 ± 0.9%.
The matching figures for `CCCc1cc(=O)oc2cc(OC(C)C(=O)NNS(=O)(=O)c3cccc(C(F)(F)F)c3)ccc12` (stereo not shown) [D11, N'1-{2-[(2-oxo-4-propyl-2H-chromen-7-yl)oxy]propanoyl}-3-(trifluoromethyl)benzene-1-sulfonohydrazide]: 40.6 ± 0.11% and 35.5 ± 0.35%.
In the same order, the values of `O=C1C2CCN(CC2)C1CSc1ccc(Cl)cc1` (stereo not shown) [F02, 2-{[(4-chlorophenyl)thio]methyl}quinuclidin-3-one] are 52 ± 2.9% and 100 ± 0.003%.
The matching figures for `ON=Cc1ccc(-c2ccccc2OC(F)(F)F)o1` [G10, 5-[2-(trifluoromethoxy)phenyl]-2-furaldehyde oxime]: 54.4 ± 1.2% and 100 ± 0.003%.
Regarding `COc1cc(C(F)(F)F)nc2ccc(C#CCOC(=O)c3ccccc3)cc12` [G03, 3-[4-methoxy-2-(trifluoromethyl)-6-quinolyl]prop-2-ynyl benzoate], the cytotoxicity at 50 µM in the data set with MCF7 3D spheroids (Homo sapiens) was 21.3 ± 0.6%; in the data set with MCF7, 49.8 ± 2.9%.
In the same order, the values of `O=C(Nc1cccc(-c2ncon2)c1)C(Cl)(Cl)Cl` [D03, 2,2,2-trichloro-N-[3-(1,2,4-oxadiazol-3-yl)phenyl]acetamide] are 23.5 ± 0.17% and 11.1 ± 0.9%.
Turning to `COC(=O)C(C#N)=Cc1cccn1-c1ccc(C(F)(F)F)cc1` [B05, methyl 2-cyano-3-{1-[4-(trifluoromethyl)phenyl]-1H-pyrrol-2-yl}acrylate], the cytotoxicity at 50 µM in the data set with MCF7 3D spheroids (Homo sapiens) is 42.1 ± 1.9%; in the data set with MCF7 it was 91.3 ± 0.6%.
For `CCOC(=O)N1CCC(=NNc2ccc([N+](=O)[O-])cc2[N+](=O)[O-])CC1` [H10, ethyl 4-[2-(2,4-dinitrophenyl)hydrazono]piperidine-1-carboxylate], the cytotoxicity at 50 µM in the data set on MCF7 3D spheroids (Homo sapiens) worked out at 60.6 ± 1.1%; in the data set on MCF7 it was 27.5 ± 1.4%.
The matching figures for `Cn1c(=NN=c2oc3ccccc3n2C)oc2ccccc21` [C03, 1,2-di(3-methyl-2,3-dihydro-1,3-benzoxazol-2-yliden)hydrazine]: 3.4 ± 0.17% and 86.6 ± 9.3%.
The matching figures for `OC(CSc1ccccc1)CN1CCN(c2nccc(C(F)(F)F)n2)CC1` (stereo not shown) [F08, 1-(phenylthio)-3-{4-[4-(trifluoromethyl)pyrimidin-2-yl]piperazino}propan-2-ol]: 61.6 ± 0.8% and 100 ± 0.003%.
The matching figures for `O=[N+]([O-])c1cc(C(F)(F)F)ccc1-n1ccc(C(F)(F)F)n1` [B11, 1-[2-nitro-4-(trifluoromethyl)phenyl]-3-(trifluoromethyl)-1H-pyrazole]: 30.5 ± 0.53% and 0%.
Consider `Cc1cc(Br)c(NC(=O)C(Cl)Cl)c(Br)c1` [H07, N1-(2,6-dibromo-4-methylphenyl)-2,2dichloroacetamide], for which the cytotoxicity at 50 µM in the data set with MCF7 3D spheroids (Homo sapiens) amounted to 40.6 ± 0.7%; with MCF7, 65.3 ± 2.3%.
The matching figures for `CC1(C)CC(=O)C2=C(C1)OC(N)=C(C#N)C2c1ccc(Cl)cc1` (stereo not shown) [E11, 2-amino-4-(4-chlorophenyl)-7,7-dimethyl-5-oxo-5,6,7,8-tetrahydro-4H-chromene-3-carbonitrile]: 66.4 ± 1.9% and 93.7 ± 1.29%.
The matching figures for `O=[N+]([O-])c1ccc2nc(-c3ccccc3)c(-c3ccccc3)nc2c1` [D02, 6-nitro-2,3-diphenylquinoxaline]: -8 ± 0.003% and 5.2 ± 0.18%.
Take `CC(=O)Nc1ccc(-c2ccccc2)cc1` [D05, N-[1,1'-biphenyl]-4-ylacetamide]: the cytotoxicity at 50 µM turned out to be 50.9 ± 2.4% in the data set on MCF7 3D spheroids (Homo sapiens) and 49.7 ± 4.1% with MCF7.
In the case of `CC(=O)Nc1ccc(NC(=O)c2nccnc2C(=O)O)cn1` [C09, 3-({[6-(acetylamino)-3-pyridinyl]amino}carbonyl)-2-pyrazinecarboxylic acid], the cytotoxicity at 50 µM with MCF7 3D spheroids (Homo sapiens) was -23.4 ± 0.5%; in the data set with MCF7, 9.9 ± 1.1%. Further, in the data set on MCF7 3D spheroids (Homo sapiens, MCF7, read-out: % inhibition 3D), the inhibition at 50 µM is -23%.
